According to ChEMBL document CHEMBL1123200 (J Med Chem, 1986):

Tests used:
Rattus norvegicus [1] = species on record: Rattus norvegicus; experiment: Inhibition was measured for [3H]GABA-uptake from rat synaptosomal membrane.; assay type: functional
Rattus norvegicus [2] = species on record: Rattus norvegicus
Rattus norvegicus [3] = species on record: Rattus norvegicus; remark: listed apart in the source

Ki (Rattus norvegicus [1]) [µM]	Km (Rattus norvegicus [3]) [µM]	SMILES	Vmax (pM min-1 mg-1) (Rattus norvegicus [2])
12.9	–	CN1CC(C(=O)O)=CC(=C(c2ccccc2)c2ccccc2)C1	–
104	–	O=C(O)C1=CC(=C(c2ccccc2)c2ccccc2)CNC1	–
3.8	–	O=C(O)C1CCCNC1 (stereo not given) [NIPECOTIC ACID]	–
–	4.3	NCCCC(=O)O	881
